This test relates to human mast cell line (HMC-1.1). The test can be described thus: Release of pro-pain and pro-inflammatory mediators (degranulation) by activated human mast cells. The test is classed as cell-based. The conditions noted are these: HMC-1.1 activated by compound 48/80 or substance P; substances added individually or combined. As for the experimental part:
A human mast cell line (HMC-1.1) was activated both by compound 48/80 (a potent synthetic stimulant, available from Sigma-Aldrich) and by substance P (potent physiological stimulant, CAS number 33507-63-0). The release of pro-pain and pro-inflammatory mediators, such as histamine, TNF-α and IL-6, was then measured in the absence of PEA and melatonin, in the presence of PEA or melatonin alone as well as in the presence of PEA + melatonin. The use of mast cells of human origin, compared to classic murine mast cells, has allowed to measure, with high reliability, the release not only of histamine but also of protein mediators such as TNF-α and IL-6. The in vitro analysis then made it possible to evaluate the effects of the combination at the mast cell level in a highly specific and precise manner. A direct study on a biological organism, ultimately humans, would have been insensitive as the variation of pro-pain and pro-inflammatory mediators, detected in the blood or in any body fluid, would have depended on an action of PEA and melatonin on various cell types, and not exclusively on mast cells.

SMILES strings stand for the structures.

`CCCCCCCCCCCCCCCC(=O)NCCO` [PEA, palmitoylethanolamide]: the “reduction in the release of mast cell mediators (histamine, TNF-α, IL-6)” value is reported as “comparable reduction in the release of mast cell mediators”.

For the compound `COc1ccc2[nH]cc(CCNC(C)=O)c2c1` [melatonin], the “reduction in the release of mast cell mediators (histamine, TNF-α, IL-6)” value is “comparable reduction in the release of mast cell mediators”.

The record behind these values is patent EP4289421A1, “COMBINATION OF PALMITOYLETHANOLAMIDE (PEA) AND MELATONIN FOR THE TREATMENT OF MAST CELL HYPER-REACTIVITY” (Erbozeta S.p.A., priority 2022, dated 2023).
